US7645882B2, “Inhibitor of protein modification products formation” (priority 2003, dated 2010)

Assays:
[1] = system: GRP78; test: ER stress inducing molecule expression in RIN-5F cells, western blot, GRP78; format: cell-based, rat; details: TM-2002 200 μM, 50 μM and tunicamycin co-added
Description: (§1) Rat pancreatic β cell line (RIN-5F) was seeded in 6 well culture plate to 1.0×10^5 cells/well, and after 24 hours, TM-2002 in DMSO (200 mM, 50 mM) were added to be final concentration 200 μM, 50 μM. After another 1 hour, 0.2 μl of tunicamycin (Sigma) in methanol(1 mg/ml) was added. After culturing 8 hours, the cells were washed 2 ml of PBS(+) twice, and the cells were dissolved in 100 μl of lysate (50 mM Tris-HCl (pH 7.5), 150 mM NaCl, 100 mM NaF, 100 mM sodium phosphate (pH 7.4), 2 mM Na3VO4, 0.1% protease inhibitor cocktail (Sigma), 1% Triton X-100). To remove the insoluble fraction of this lysate, centrifuged at 12,000×g for 10 minutes and obtained the supernatant to give cell extract. The extract was quantified its protein concentration using DC protein assay kit (Bio Rad), and each samples (1 μg) was electrophoresed by SDS-PAGE and transferred to PVDF membrane. The membrane was blocked with 5% skimmed milk/0.1% Tween20-TBS for 1 hour at room temperature, and reacted with anti-ORP150 antibody in 5% skimmed milk/0.1% Tween20-TBS (2000 folds: specific antibody), anti-GRP78 antibody (Santa Cruz) in 5% skimmed milk/0.1% Tween20-TBS (100 folds) and anti-actin antibody (Sigma) in 5% skimmed milk/0.1% Tween20-TBS (200 folds) for 2 hours. […] The detected signal was analyzed by Lane analyzer (ATTO) and calculated the signal strength. […]

[2] = system: ORP150; test: ER stress inducing molecule expression in RIN-5F cells, western blot, ORP150; format: cell-based, rat; details: TM-2002 200 μM, 50 μM and tunicamycin co-added
Description: as §1

[3] = system: Thy-1 nephritis model rat; test: Renal protective effect on Thy-1 nephritis model rat; format: in vivo; details: 50 mg/kg twice daily by sonde, 5 days
Description: 1.2 mg/kg of OX-7, anti Thy-1 antibody, was administered to wistar rat (male, body weight 150 g, 6 weeks aged) in caudal vein to prepare typical glomerulonephritis model with mesangial nephritis. After the administration of anti Thy-1 antibody, test compound (TM-2002, 50 mg/kg body weight, twice a daily) was suspended in 0.5% carboxymethylcellulose, was coercively administered 5 days continuously using sonde, on sixth day sampled, kidney was obtained, and analysed pathologically (count the number of glomerular cells). In particular, cells were stained by PAS according to conventional method, the stained image was captured by 3CCD camera (Olympus), and then analyzed using softwares, Image Graver PCI (FUJI shashin film) and Mac Aspect (Mitani kabushiki kaisha). Also, biochemical analysis of blood and urine was carried out (contract clinical analysis organization: SRL).

[4] = system: pentosidine; test: Pentosidine production inhibiting effect with BSA and arabinose; format: biochemical; details: BSA and arabinose instead of plasma
Method in brief: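 Heparinized hemodialysis-patient plasma (replaced here by BSA plus arabinose) incubated with compound at 0.8, 2.0, 5.0 mM final, 37 °C, one week. Protein TCA-precipitated, hydrolysed in 6N HCl at 110 °C for 16 h; free pentosidine quantified by reversed-phase HPLC with fluorescence (ex/em 335/385 nm) against synthetic standard.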

SMILES: Cc1ncc2c(c1O)C(c1c(C)nn(-c3ccccc3)c1O)OC2 (stereo not drawn) [compound 68, 1-(5-hydroxy-3-methyl-1-phenyl-1H-pyrazol-4-yl)-6-methyl-1,3-dihydro-furo[3,4-c]pyridin-7-ol]
- hyperexpression of GRP78 [1]: suppressed
- hyperexpression of ORP150 [2]: suppressed
- BUN value ([3]; sampled on sixth day): improved
- urinary protein ([3]; sampled on sixth day): improved
- number of glomerular cells ([3]; p<0.0001): significantly suppressed
- Pentosidine production rate in 5 mM of medicament (%) [4]: 2.82%
